Experimental data reported in ChEMBL document CHEMBL1156829 (Proc Natl Acad Sci U S A, 2008).
Several values for one entry are separate records, joined by “and”; a condition that tells them apart may be missing. Equal values may be shown once. Where a name gives a salt, the structure may show the parent alone. Numbered stars: 1 amine (or outer) side, 2 acyl side, 3 side chain; on linkers, the order of the positions; unused ones are H or OH. Bridge positions count the residues as written; N and C are the ends. Square brackets hold non-standard residues; d marks the D form. Peptide text beside a SMILES is read from it. I, II: the chains in the order shown. Actinocin(1to9) = Cc1c2oc3c(C)ccc(C(=O)[*:2])c3nc-2c(C(=O)[*:1])c(N)c1=O; NMeV = CN[C@H](C(=O)O)C(C)C; Sar = CNCC(=O)O

Key:
Plasmodium falciparum [1] = test: NOVARTIS: Inhibition of Plasmodium falciparum 3D7 (drug-susceptible) proliferation in erythrocyte-based infection assay; format: functional, organism-based
Plasmodium falciparum [2] = test: NOVARTIS: Inhibition of Plasmodium falciparum W2 (drug-resistant) proliferation in erythrocyte-based infection assay; format: functional, organism-based; conditions: read-out: EC50
Huh-7 = test: (§1) NOVARTIS: Cytotoxicity against human hepatocellular carcinoma cell line (Huh7); format: toxicity, cell-based
[3] = as §1; format: toxicity, cell-based, Huh-7; conditions: Huh7 cells (hepatocellular carcinoma cell line)

SMILES	EC50 (Plasmodium falciparum [1]; Plasmodium falciparum, 3D7) [nM]	EC50 (Plasmodium falciparum [2])	CC50 (Huh-7; huh-7, read-out: CC50)	EC50 (Plasmodium falciparum [2]; Plasmodium falciparum, W2) [nM]	EC50 (Plasmodium falciparum [1])	CC50 [3] [nM]	CC50 (Huh-7; huh-7)
CC[n+]1c(C=CN(C)C)sc2ccccc21	459	1360 nM	27100 nM				
CN(C)c1ccc(C=CC=Cc2cccc[n+]2C)cc1	108		> 10000 nM	< 8.47			
COc1cc(/C=C2/SC(=Nc3ccccc3)NC2=O)ccc1OCc1ccccc1Cl	957	522 nM	> 100000 nM	494	692 nM		
CCN(CC)c1ccc(C=Cc2cc[n+](Cc3ccc(F)cc3)cc2)cc1	241	578 nM	> 10000 nM	769	417 nM	5290	
CCN1/C(=C/c2ccc3ccccc3[n+]2CC)Sc2c1ccc1ccccc21		682 nM and > 621 nM and 212 nM	7140 nM		225 nM and 631 nM and 334 nM	> 10000	
CC[n+]1c(/C=C/N2CCCc3ccccc32)ccc2ccccc21	75.7		2340 nM	145			
Cc1[nH]c2ccccc2c1/C=C/c1cc[n+](C)cc1	259		> 10000 nM	116			
Cc1occc1C(=O)NN=C/C(Cl)=C/c1ccccc1	255	116 nM and 392 nM	> 10000 nM and 64300 nM		291 nM		
C[n+]1ccc(C=Cc2ccc(O)cc2)cc1		593 nM	> 100000 nM		1430 nM		
CCN1/C(=C/c2ccc3cc(OC)ccc3[n+]2CC)Sc2cc(C)ccc21	161	275 nM and 86.2 nM	11700 nM		90.7 nM	19200	
CCn1c(C=CN(C(C)=O)c2ccccc2)[n+](CC)c2cc(Cl)ccc21	> 1650		> 10000 nM	> 1060			
O=C(NCCc1ccccc1)C1CCC(Cn2c(=S)[nH]c3ccccc3c2=O)CC1 (stereo not drawn)	> 1650			1750			No fit
CN1/C(=C/c2cccc[n+]2C)Sc2ccccc21	138	293 nM	> 100000 nM	223	230 nM		
CC[n+]1c(C=CC=C2N(C)c3ccccc3C2(C)C)sc2ccccc21	629		> 10000 nM	520			
OCC[n+]1ccc(/C=C/c2c[nH]c3ccccc23)cc1	390	396 nM	> 100000 nM	554	343 nM		
C[n+]1c2ccccc2nc2ccc(NCCc3cnc[nH]3)cc21	139			405			No fit
CCN(CC)c1ccc(C=Cc2cccc[n+]2CC)cc1		131 nM	44900 nM		88.5 nM		
COc1ccc(/C=C2\SC(=O)NC2=Nc2ccccc2)cc1	819	1300 nM and 378 nM	> 100000 nM				
CCN1/C(=C/c2cccc[n+]2C)Sc2ccc(OC)cc21	207	> 867 nM and 304 nM	> 100000 nM				
C[n+]1ccccc1C=Cc1cc(Br)ccc1O		308 nM	> 100000 nM		466 nM		
CC[n+]1c(C=CC=C2N(C)c3ccccc3C2(C)C)sc2ccccc21.[O-][Cl+3]([O-])([O-])[O-]	149		1630 nM	177			
CCN(CC)C1SC=C(c2ccc([N+](=O)[O-])cc2)S1 (stereo not drawn)	446	911 nM and 390 nM	> 96000 nM		549 nM		
CCN1/C(=C/C=C/c2sc3ccccc3[n+]2CC)Sc2ccccc21 [ALAZANINE]	200	1060 nM	27000 nM				
Cc1c2oc3c(C)ccc(C(=O)N[C@@H]4C(=O)N[C@H](C(C)C)C(=O)N5CCC[C@H]5C(=O)N(C)CC(=O)N(C)[C@@H](C(C)C)C(=O)O[C@@H]4C)c3nc-2c(C(=O)N[C@@H]2C(=O)N[C@H](C(C)C)C(=O)N3CCC[C@H]3C(=O)N(C)CC(=O)N(C)[C@@H](C(C)C)C(=O)O[C@@H]2C)c(N)c1=O [DACTINOMYCIN] (I: T[dV]P[Sar][NMeV] / II: T[dV]P[Sar][NMeV]; ester I:1-I:C, II:1-II:C; linker I:N-II:N via Actinocin(1to9))		395 nM	4180 nM and > 10000 nM	214	323 nM and 807 nM		
CCOc1ccc2nccc([C@@H](O)[C@@H]3C[C@@H]4CCN3C[C@@H]4CC)c2c1 [ETHYLHYDROCUPREINE HYDROCHLORIDE]		< 3.48 nM	> 10000 nM		39 nM		
CCOc1ccc2nccc([C@@H](O)[C@@H]3C[C@@H]4CCN3C[C@@H]4CC)c2c1 [ETHYLHYDROCUPREINE]	31.8	25.7 nM	53800 nM				
